Measured values published in paper PMC9079729, “Conservation of the conformational dynamics and ligand binding within M49 enzyme family” (RSC Advances, 2018).
Residues, ends and D or L forms follow the SMILES beside them.

Experiments:
hDPP III = target: T1, hDPP III (Homo sapiens, UniProt Q9NY33); assay: biochemical
T1 sequence (Q9NY33 1-737): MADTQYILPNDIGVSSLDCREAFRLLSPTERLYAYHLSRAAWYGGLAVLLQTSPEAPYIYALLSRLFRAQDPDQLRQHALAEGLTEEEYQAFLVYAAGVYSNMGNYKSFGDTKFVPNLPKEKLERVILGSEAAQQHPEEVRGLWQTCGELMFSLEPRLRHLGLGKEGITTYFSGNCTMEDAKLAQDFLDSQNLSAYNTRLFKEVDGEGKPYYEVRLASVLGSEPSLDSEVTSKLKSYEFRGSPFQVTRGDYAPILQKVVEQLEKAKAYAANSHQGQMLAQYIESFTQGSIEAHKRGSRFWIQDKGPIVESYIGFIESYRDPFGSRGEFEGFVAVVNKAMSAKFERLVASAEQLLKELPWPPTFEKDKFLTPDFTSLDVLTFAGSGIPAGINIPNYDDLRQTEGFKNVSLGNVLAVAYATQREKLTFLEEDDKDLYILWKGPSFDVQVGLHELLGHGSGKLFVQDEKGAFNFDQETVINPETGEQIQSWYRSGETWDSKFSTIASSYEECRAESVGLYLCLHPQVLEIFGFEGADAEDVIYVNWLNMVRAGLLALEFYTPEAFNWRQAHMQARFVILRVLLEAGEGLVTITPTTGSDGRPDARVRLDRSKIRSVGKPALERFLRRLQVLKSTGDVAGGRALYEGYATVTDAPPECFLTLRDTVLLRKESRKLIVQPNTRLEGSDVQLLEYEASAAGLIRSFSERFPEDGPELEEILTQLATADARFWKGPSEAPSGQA
Method: The Km values for hydrolysis of fluorogenic substrate Arg2-2NA were determined at pH 7.4 (20 mM Tris–HCl buffer) and at 25 °C, from the initial reaction rates as previously described.[26]
Enzyme inhibition studies with tynorphin were performed using the Arg2-2NA as a substrate, according to Baršun et al.[36] The inhibition constant, Ki, was calculated according to the equation:1 Ki = i/(v0/vi − 1)·Km/(Km + s)where v0 and vi are the initial hydrolysis rates of Arg2-2NA (given in concentration s) catalyzed by DPP III in the absence and presence of inhibitor concentration (i), and Km is the Michaelis constant.

BtDPP III = target: T2, BtDPP III (Bacteroides thetaiotaomicron, UniProt Q8A6N1); assay: Inhibition of DPP III hydrolysis of Arg2-2NA by tynorphin; assay type: biochemical; settings: substrate Arg2-2NA, from initial hydrolysis rates, eq. 1
T2 construct: made in house; host or cells: E. coli
T2 sequence (Q8A6N1 entry or part of it, change not shown): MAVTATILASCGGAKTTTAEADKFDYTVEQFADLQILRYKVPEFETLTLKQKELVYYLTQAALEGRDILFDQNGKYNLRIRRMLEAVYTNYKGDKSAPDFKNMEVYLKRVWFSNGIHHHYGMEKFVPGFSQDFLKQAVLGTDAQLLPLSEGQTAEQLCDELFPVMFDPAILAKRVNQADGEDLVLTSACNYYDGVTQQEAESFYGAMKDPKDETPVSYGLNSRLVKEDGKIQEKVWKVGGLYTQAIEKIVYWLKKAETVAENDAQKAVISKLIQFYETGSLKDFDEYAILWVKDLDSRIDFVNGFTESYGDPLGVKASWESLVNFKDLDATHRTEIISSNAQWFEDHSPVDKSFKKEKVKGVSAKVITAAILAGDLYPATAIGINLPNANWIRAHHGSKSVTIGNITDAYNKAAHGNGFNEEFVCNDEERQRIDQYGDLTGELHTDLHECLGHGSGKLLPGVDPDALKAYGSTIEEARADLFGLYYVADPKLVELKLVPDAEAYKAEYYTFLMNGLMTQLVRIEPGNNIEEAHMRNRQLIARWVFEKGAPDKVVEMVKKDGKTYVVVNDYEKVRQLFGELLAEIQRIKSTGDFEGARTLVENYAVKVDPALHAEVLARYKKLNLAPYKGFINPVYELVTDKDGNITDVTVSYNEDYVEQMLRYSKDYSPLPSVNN

For `CC(C)[C@H](N)C(=O)N[C@H](C(=O)N[C@@H](Cc1ccc(O)cc1)C(=O)N1CCC[C@H]1C(=O)N[C@@H](Cc1c[nH]c2ccccc12)C(=O)O)C(C)C` [tynorphin] (H-VVYPW-OH), the Ki (hDPP III) was 0.03 µM and the Ki (BtDPP III) was 0.98 µM.
